From patent publication US9040532B2, “Alpha adrenergic receptor modulators” (Allergan, Inc., priority 2009, dated 2015)
Read-outs that look alike come from different tables or passages of the source.

Experiments:
Alpha 2B [1] = biological target: T1, Alpha 2B (Homo sapiens, UniProt P18089); assay: FLIPR assay, intracellular Ca2+ mobilization, alpha 2B; type: cell-based; conditions: FLIPR; for EC50: agonist, read-out: Alpha 2B Potency (EC50); for Alpha 2B relative efficacy compared to a standard full agonist: value in parentheses
T1 sequence (P18089 1-450): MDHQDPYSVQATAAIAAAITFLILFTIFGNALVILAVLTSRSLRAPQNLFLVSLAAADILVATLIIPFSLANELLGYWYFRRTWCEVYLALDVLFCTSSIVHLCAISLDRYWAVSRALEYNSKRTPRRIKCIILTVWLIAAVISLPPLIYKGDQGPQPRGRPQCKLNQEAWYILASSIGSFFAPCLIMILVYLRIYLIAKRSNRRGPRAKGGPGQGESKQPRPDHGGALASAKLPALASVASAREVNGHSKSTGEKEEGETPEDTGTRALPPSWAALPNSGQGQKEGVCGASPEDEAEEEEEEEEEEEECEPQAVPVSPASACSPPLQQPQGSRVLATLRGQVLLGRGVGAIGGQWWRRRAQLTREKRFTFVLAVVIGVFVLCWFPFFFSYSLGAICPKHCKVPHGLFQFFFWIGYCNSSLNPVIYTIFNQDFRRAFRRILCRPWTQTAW
Protocol: (§1) Cells are loaded into a plate reader with a Ca^2+ dye indicator and incubated with various compounds. This assay is adequate for monitoring the intracellular Ca^2+ mobilization from fluorescent readings to evaluate receptor agonists.

Alpha 2C = biological target: T2, Alpha 2C (Homo sapiens, UniProt P18825); assay: FLIPR assay, intracellular Ca2+ mobilization, alpha 2C; type: cell-based; conditions: for EC50: agonist, read-out: Alpha 2C Potency (EC50); for Alpha 2C relative efficacy compared to a standard full agonist: value in parentheses
T2 sequence (P18825 1-462): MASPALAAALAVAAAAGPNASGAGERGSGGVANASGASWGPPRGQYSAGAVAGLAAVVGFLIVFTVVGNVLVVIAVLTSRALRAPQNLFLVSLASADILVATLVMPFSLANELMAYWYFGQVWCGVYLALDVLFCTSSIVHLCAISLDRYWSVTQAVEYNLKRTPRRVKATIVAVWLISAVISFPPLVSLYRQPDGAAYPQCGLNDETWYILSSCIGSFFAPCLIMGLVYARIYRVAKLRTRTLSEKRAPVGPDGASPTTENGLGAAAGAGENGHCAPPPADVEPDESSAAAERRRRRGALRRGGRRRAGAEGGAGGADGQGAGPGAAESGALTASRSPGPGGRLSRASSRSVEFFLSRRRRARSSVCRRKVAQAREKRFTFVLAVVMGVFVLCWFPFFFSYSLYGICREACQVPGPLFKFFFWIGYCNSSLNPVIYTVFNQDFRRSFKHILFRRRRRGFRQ
Protocol: as §1

Alpha 2A = biological target: T3, Alpha 2A (Homo sapiens, UniProt P08913); assay: FLIPR assay, intracellular Ca2+ mobilization, alpha 2A; type: cell-based; conditions: for EC50: agonist, read-out: Alpha 2A Potency (EC50); for Alpha 2A relative efficacy compared to a standard full agonist: value in parentheses
T3 sequence (P08913 1-465): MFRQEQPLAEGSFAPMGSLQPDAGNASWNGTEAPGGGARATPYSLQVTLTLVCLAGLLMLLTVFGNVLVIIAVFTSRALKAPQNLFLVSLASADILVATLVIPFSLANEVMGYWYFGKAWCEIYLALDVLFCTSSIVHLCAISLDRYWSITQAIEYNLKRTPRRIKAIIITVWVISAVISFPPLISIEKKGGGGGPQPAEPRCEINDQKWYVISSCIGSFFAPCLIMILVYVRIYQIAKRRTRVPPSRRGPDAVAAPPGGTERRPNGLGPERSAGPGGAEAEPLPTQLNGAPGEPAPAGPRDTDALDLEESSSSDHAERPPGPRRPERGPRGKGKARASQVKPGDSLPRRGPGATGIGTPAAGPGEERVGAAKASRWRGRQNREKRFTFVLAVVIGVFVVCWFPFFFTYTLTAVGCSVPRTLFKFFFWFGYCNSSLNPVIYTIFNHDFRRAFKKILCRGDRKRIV
Protocol: The compounds described herein were tested for alpha adrenergic activity using a Fluorometric Imaging plate Reader (FLIPR) assay (Princen et al., 2003, Cytometry Part A. 51, pp. 35-45). Cells are loaded into a plate reader with a Ca^2+ dye indicator and incubated with various compounds. This assay is adequate for monitoring the intracellular Ca^2+ mobilization from fluorescent readings to evaluate receptor agonists. […] The compounds described herein activate alpha adrenergic receptors.

Alpha 2B [2] = biological target: Alpha 2B (Homo sapiens, UniProt P18089); assay: FLIPR assay, intracellular Ca2+ mobilization, alpha 2B; type: cell-based
Protocol: as §1

[3] = system: Intraoccular Pressure (IOP); assay: In-vivo intraocular pressure compound screening; conditions: normotensive male Dutch-Belted rabbits, single 50 μl topical drop, 0.15% or 1.0%; for IOP lowering: IOP 0.5-8 h vs 0 h baseline
Protocol: The experimental animals used, were Normotensive male Dutch-Belted rabbits over 6 months in age (n=4/compound/dose screened). A single drop (50 μl) of the drug formulation, which yields 0.15% or 1.0% of the active metabolite was administered topically by pipette onto the right eye (treated eye) at approximately 0700 hours. Intraoccular Pressure (IOP) of the rabbits (treated and untreated eyes) was measured 0 hours before and at 0.5, 1, 2, 3, 4, 6 and 8 hours after topical eyedrop administration. IOP at the time of eyedrop administration (0 hours) was used as a baseline value. Prior to the tonometric measurements, 0.05% proparacaine (50 μl) was administered to each eye. Tonometric IOP measurements were obtained with a Mentor Pneumontonmeter. Additionally, all studies were masked. At least 1 week of wash-out time was allowed for each rabbit between dosings. All animals were examined for sedation, ocular irritation, and changes in pupil diameter throughout the course of the experiments. […] In this assay, Compound 10 lowered IOP about 35%.

SMILES | EC50 (Alpha 2B [1]) [nM] | Alpha 2B relative efficacy compared to a standard full agonist (Alpha 2B [1]) | EC50 (Alpha 2C) [nM] | Alpha 2C relative efficacy compared to a standard full agonist (Alpha 2C) | EC50 (Alpha 2A) [nM] | Alpha 2A relative efficacy compared to a standard full agonist (Alpha 2A) | EC50 (Alpha 2B [2]) [nM] | IOP lowering [3] | IOP lowered ([3]; vs 0 h baseline)
Cc1c(NC2=NCCC2)ccc2c1NCCO2 [Compound 36, N-(3,4-Dihydro-2H-pyrrol-5-yl)-5-methyl-3,4-dihydro-2H-1,4-benzoxazin-6-amine] | 579 | (0.77) | 327 | (0.87) | 583 | (0.68) |  |  | 
c1cc2c(cc1NC1=NCCC1)CCCC2 |  |  |  |  |  |  | 293 |  | 
Brc1c(NC2=NCCC2)ccc2[nH]cnc12 [Compound 10, 4-Bromo-N-(3,4-dihydro-2H-pyrrol-5-yl)-1H-benzimidazol-5-amine] | 90 | (0.76) | 1.5 | (0.94) | 3 | (1) |  | show potential in lowering IOP | about 35%
Cc1cccc2c1CC[C@@H]2NC1=NCCC1 [Compound 37, N-[(1S)-4-Methyl-2,3-dihydro-1H-inden-1-yl]-3,4-dihydro-2H-pyrrol-5-amine] | 21 | (0.9) | 58 | (0.94) | 272 | (0.43) |  |  | 
Brc1c(NC2=NCCC2)ccc2scnc12 [Compound 31, 4-Bromo-N-(3,4-dihydro-2H-pyrrol-5-yl)-1,3-benzothiazol-5-amine] | 117 | (.76) | 25 | (.92) | 96 | (.98) |  |  | 
Cc1c(NC2=NCCC2)ccc2[nH]cnc12 [Compound 12, N-(3,4-dihydro-2H-pyrrol-5-yl)-4-methyl-1H-benzimidazol-5-amine] | 510 | (0.86) | 58 | (1) | 203 | (1) |  | show potential in lowering IOP | 
Clc1c(NC2=NCCC2)ccc2[nH]cnc12 [Compound 11, 4-Chloro-N-(3,4-dihydro-2H-pyrrol-5-yl)-1H-benzimidazol-5-amine] | 513 | (0.69) | 35 | (1) | 216 | (0.98) |  | show potential in lowering IOP | 
Cc1c(NC2=NCCC2)ccc2nccnc12 [Compound 27, N-(3,4-Dihydro-2H-pyrrol-5-yl)-5-methylquinoxalin-6-amine] |  |  | 16 | (0.9) | 121 | (0.89) |  | show potential in lowering IOP | 
Clc1c(NC2=NCCC2)ccc2cccnc12 [Compound 9, 8-Chloro-N-(3,4-dihydro-2H-pyrrol-5-yl)quinolin-7-amine] | 1050 | (0.38) | 218 | (0.97) | 429 | (1) |  | show potential in lowering IOP | 
c1cc2cc(/N=C3\CCCN3)cnc2[nH]1 [Compound 26, N-[(2E)-Pyrrolidin-2-ylidene]-1H-pyrrolo[2,3-b]pyridin-5-amine] | 17 | (0.96) | 6 | (0.97) | 118 | (0.85) |  |  | 
Cc1c(NC2=NCCC2)ccc2cccnc12 [Compound 29, N-(3,4-Dihydro-2H-pyrrol-5-yl)-8-methylquinolin-7-amine] | 80 | (0.2) | < 1 | (1) | 6 | (0.98) |  | show potential in lowering IOP | 
c1cc(NC2=NCCC2)c2cc[nH]c2c1 [Compound 25, N-(3,4-Dihydro-2H-pyrrol-5-yl)-1H-indol-4-amine] | 152 | (0.42) | < 10 | (0.99) | 115 | (0.7) |  |  | 
Cc1ccc2ccccc2c1NC1=NCCC1 [Compound 2, N-(2-Methyl-1-naphthyl)-3,4-dihydro-2H-pyrrol-5-amine] | 145 | (0.18) | 368 | (0.85) | 733 | (0.61) |  |  | 
Brc1c(NC2=NCCC2)ccc2nccnc12 [Compound 8, 5-Bromo-N-(3,4-dihydro-2H-pyrrol-5-yl)quinoxalin-6-amine] | 2200 | (0.21) | 1050 | (0.82) | 1070 | (0.81) |  |  | 
